Assay results from ChEMBL document CHEMBL1126104, “Synthesis and antiviral activity of some new S-adenosyl-L-homocysteine derivatives” (1992).
Converted amounts (≈) assume the structure as drawn.

Assays:
Semliki Forest virus = assay: Antiviral activity against semliki forest virus (SFV) in Vero cell culture lines; type: functional
Human respirovirus 3 = assay: Antiviral activity against parainfluenza virus type 3 in Vero cell culture lines; type: functional
Coxsackievirus B4 [1] = assay: Antiviral activity against coxsackie B4 virus in HeLa cell culture lines; type: functional; conditions: Enterovirus B
[2] = system: Mammalian orthoreovirus 1; assay: Antiviral activity against reovirus type 1 in Vero cell culture lines; type: functional
Sindbis virus = assay: Antiviral activity against sindbis virus in Vero cell culture lines; type: functional
[3] = system: Human immunodeficiency virus 1; assay: Antiviral activity against (HIV-1) in MT-4 cells Value in parentheses is inhibitory concentration for cell growth (MT-4); type: functional, MT4
Human alphaherpesvirus 2 = assay: Antiviral activity against HSV-2(G) strain in primary rabbit kidney (PRK) / embryonic skin-muscle (E6SM) fibroblast culture lines; type: functional; conditions: Human alphaherpesvirus 2, Muscle tissue
[4] = system: Vesicular stomatitis virus; assay: Antiviral activity against vesicular stomatitis virus (VSV) in HeLa cell culture lines,; type: functional
Vaccinia virus = assay: Antiviral activity against vaccinia virus (VV) in primary rabbit kidney (PRK) / embryonic skin-muscle (E6SM) fibroblast culture lines; type: functional; conditions: Orthopoxvirus vaccinia, Muscle tissue
Poliovirus 1 = assay: Antiviral activity against polio virus type 1 in HeLa cell culture lines; type: functional; conditions: Enterovirus C
Coxsackievirus B4 [5] = assay: Antiviral activity against coxsackie B4 in Vero cell culture lines; type: functional; conditions: Enterovirus B
[6] = system: Vesicular stomatitis virus; assay: Antiviral activity against vesicular stomatitis virus (VSV) in primary rabbit kidney (PRK) / embryonic skin-muscle (E6SM) fibroblast culture lines; type: functional; conditions: Muscle tissue
Human alphaherpesvirus 1 = assay: Antiviral activity against HSV-1(KOS) strain in primary rabbit kidney (PRK) / embryonic skin-muscle (E6SM) fibroblast culture lines; type: functional; conditions: Human alphaherpesvirus 1, Muscle tissue

Row | SMILES | MIC (Semliki Forest virus) [µg/mL] | MIC (Human respirovirus 3) [µg/mL] | MIC (Coxsackievirus B4 [1]) [µg/mL] | MIC [2] [µg/mL] | MIC (Sindbis virus) [µg/mL] | MIC [3] [µg/mL] | MIC (Human alphaherpesvirus 2) [µg/mL] | MIC [4] [µg/mL] | MIC (Vaccinia virus) [µg/mL] | MIC (Poliovirus 1) [µg/mL] | MIC (Coxsackievirus B4 [5]) [µg/mL] | MIC [6] [µg/mL] | MIC (Human alphaherpesvirus 1) [µg/mL]
1 | COCC(=O)NC(CCSC[C@H]1OC(n2ccc3c(N)ncnc32)[C@H](O)[C@@H]1O)C(=O)O (some centres undefined) | > 400 | > 400 | > 400 | > 400 | > 400 | > 200 | > 400 | > 400 | > 400 | > 400 | > 400 | > 20 | > 400
2 | Nc1ncnc2c1ccn2C1O[C@H](CSCCC(NC(=O)C(F)(F)F)C(=O)O)[C@@H](O)[C@H]1O (some centres undefined) | > 400 | > 400 | > 400 | > 400 | > 400 | > 20 | > 200 | > 400 | 20 (≈ 41.7 µM) | > 400 | > 400 | > 200 | > 200
3 | CC(=O)NC(CCSC[C@H]1OC(n2ccc3c(N)ncnc32)[C@H](O)[C@@H]1O)C(=O)O (some centres undefined) | > 400 | > 400 | > 400 | > 700 | > 400 | > 200 | > 200 | > 400 | 7 (≈ 16.5 µM) | > 400 | > 400 | > 200 | > 200
4 | COCC(=O)NC(CCSC[C@H]1OC(n2ccc3c(N)ncnc32)[C@H](O)[C@@H]1O)C(=O)OC(C)C (some centres undefined) | > 200 | > 200 | > 200 | > 200 | > 200 | > 100 | 70 (≈ 141 µM) | 100 (≈ 201 µM) | 7 (≈ 14.1 µM) | > 200 | > 100 | 20 (≈ 40.2 µM) | > 150
5 | CC(C)(C)C(=O)OCn1nc([C@@H]2O[C@H](CO)[C@@H](O)[C@H]2O)c2ncnc(N)c21 | > 10 | 1 (≈ 2.62 µM) | > 40 | 3 (≈ 7.87 µM) | > 10 | > 0.8 | > 40 | 30 (≈ 78.7 µM) | > 40 | > 40 | > 10 | 30 (≈ 78.7 µM) | 30 (≈ 78.7 µM)
6 | Nc1ncnc2c([C@@H]3O[C@H](CO)C[C@H]3O)n[nH]c12 | > 400 | 300 (≈ 1190 µM) | > 400 | > 200 | > 400 | > 100 | > 400 | > 400 | > 400 | > 400 | > 200 | > 400 | > 400
7 | CCOC(=O)C(CCSC[C@H]1OC(n2ccc3c(N)ncnc32)[C@H](O)[C@@H]1O)NC(=O)C(F)(F)F (some centres undefined) | > 40 | > 20 | 20 (≈ 39.4 µM) | > 20 | > 20 | > 4 | 10 (≈ 19.7 µM) | 4 (≈ 7.88 µM) | 7 (≈ 13.8 µM) | 20 (≈ 39.4 µM) | 7 (≈ 13.8 µM) | 2 (≈ 3.94 µM) | 7 (≈ 13.8 µM)
8 | CC(C)(C)C(=O)OCn1nc([C@@H]2O[C@H](CO)C[C@H]2O)c2ncnc(N)c21 | > 100 | > 100 | > 100 | > 100 | > 100 | > 20 | > 100 | > 100 | > 100 | > 100 | > 100 | > 100 | > 100
9 | COC(=O)C(CCSC[C@@H]1C[C@@H](O)[C@H](n2ccc3c(N)ncnc32)O1)NC(=O)C(F)(F)F (some centres undefined) | > 400 | > 200 | > 200 | 40 (≈ 83.8 µM) | > 400 | > 100 | > 200 | 300 (≈ 628 µM) | 70 (≈ 147 µM) | > 400 | > 200 | 20 (≈ 41.9 µM) | > 200
10 | CCCOC(=O)C(CCSC[C@H]1OC(n2ccc3c(N)ncnc32)[C@H](O)[C@@H]1O)NC(=O)COC (some centres undefined) | > 70 | 20 (≈ 40.2 µM) | 100 (≈ 201 µM) | > 30 | > 40 | 0.8 (≈ 1.61 µM) | 10 (≈ 20.1 µM) | > 20 | 4 (≈ 8.04 µM) | 100 (≈ 201 µM) | 15 (≈ 30.1 µM) | 2 (≈ 4.02 µM) | 20 (≈ 40.2 µM)
11 | CCCOC(=O)C(CCSC[C@H]1OC(n2ccc3c(N)ncnc32)[C@H](O)[C@@H]1O)NC(=O)C(F)(F)F (some centres undefined) | > 200 | 70 (≈ 134 µM) | > 100 | > 100 | 70 (≈ 134 µM) | – | > 10 | > 20 | 0.7 (≈ 1.34 µM) | > 100 | > 150 | > 10 | > 10
12 | Nc1ncnc2c1ncn2[C@@H]1O[C@H](CCl)C[C@H]1O | > 40 | > 40 | > 200 | > 40 | > 40 | > 100 | > 100 | > 200 | > 200 | > 200 | > 40 | > 400 | > 200
13 | CCCOC(=O)C(N)CCSC[C@H]1OC(n2ccc3c(N)ncnc32)[C@H](O)[C@@H]1O (some centres undefined) | > 150 | > 70 | > 100 | > 70 | > 70 | > 20 | 2 (≈ 4.7 µM) | 20 (≈ 47 µM) | 1 (≈ 2.35 µM) | > 100 | 70 (≈ 165 µM) | 2 (≈ 4.7 µM) | 10 (≈ 23.5 µM)
14 | Nc1ncnc2c(C3O[C@H](CCl)[C@@H](O)[C@H]3O)n[nH]c12 (some centres undefined) | > 100 | 70 (≈ 245 µM) | > 400 | > 100 | > 100 | > 100 | > 200 | > 200 | 300 (≈ 1050 µM) | > 400 | 70 (≈ 245 µM) | > 400 | > 200
15 | Nc1ncnc2c1ncn2[C@@H]1O[C@H](CSCCC(N)C(=O)O)C[C@H]1O (some centres undefined) | > 100 | > 200 | > 200 | > 200 | > 200 | > 100 | > 100 | > 200 | > 200 | > 200 | > 200 | > 100 | > 100
16 | NC(=O)c1ncn([C@@H]2O[C@H](CO)[C@@H](O)[C@H]2O)n1 [RIBAVIRIN] | 200 (≈ 819 µM) | 70 (≈ 287 µM) | 40 (≈ 164 µM) | 40 (≈ 164 µM) | 200 (≈ 819 µM) | > 20 | > 400 | 20 (≈ 81.9 µM) | 30 (≈ 123 µM) | 70 (≈ 287 µM) | > 70 | 50 (≈ 205 µM) | > 400
17 | Nc1nccc2c1ncn2[C@@H]1O[C@H](CSCCC(N)C(=O)O)C[C@H]1O (some centres undefined) | > 400 | > 400 | > 400 | > 400 | > 400 | > 100 | > 400 | > 400 | > 400 | > 400 | > 400 | > 200 | > 400
18 | Nc1ncnc2c1CCN2[C@@H]1O[C@H](CO)C[C@H]1O | > 40 | 7 (≈ 27.7 µM) | 7 (≈ 27.7 µM) | 4 (≈ 15.9 µM) | 30 (≈ 119 µM) | – | 7 (≈ 27.7 µM) | > 10 | 7 (≈ 27.7 µM) | 7 (≈ 27.7 µM) | 7 (≈ 27.7 µM) | > 10 | > 10
19 | Nc1ncnc2c1CCN2[C@@H]1O[C@H](CSCCC(N)C(=O)O)C[C@H]1O (some centres undefined) | > 200 | 100 (≈ 271 µM) | > 200 | 70 (≈ 189 µM) | > 200 | – | > 100 | 20 (≈ 54.1 µM) | 2 (≈ 5.41 µM) | > 200 | > 200 | 20 (≈ 54.1 µM) | > 100
20 | Nc1ncnc2c1ccn2[C@@H]1O[C@H](CO)[C@@H](O)[C@H]1O [TUBERCIDIN] | > 0.1 | 0.02 (≈ 0.0751 µM) | 0.2 (≈ 0.751 µM) | 0.02 (≈ 0.0751 µM) | > 0.1 | – | 0.2 (≈ 0.751 µM) | 0.07 (≈ 0.263 µM) | > 0.1 | 0.2 (≈ 0.751 µM) | 0.07 (≈ 0.263 µM) | 0.07 (≈ 0.263 µM) | > 0.2
21 | Nc1nccc2c1ncn2[C@@H]1O[C@H](CO)[C@@H](O)[C@H]1O | > 400 | 0.4 (≈ 1.5 µM) | > 400 | 0.4 (≈ 1.5 µM) | 70 (≈ 263 µM) | – | 100 (≈ 376 µM) | > 2 | 1 (≈ 3.76 µM) | > 400 | > 200 | 0.7 (≈ 2.63 µM) | > 400
22 | CCOC(=O)C(CCSC[C@H]1OC(n2ccc3c(N)ncnc32)[C@H](O)[C@@H]1O)NC(=O)COC (some centres undefined) | > 400 | > 400 | 150 (≈ 310 µM) | 300 (≈ 620 µM) | 300 (≈ 620 µM) | – | > 100 | > 70 | 2 (≈ 4.14 µM) | > 200 | > 150 | 70 (≈ 145 µM) | > 100
23 | CCOC(=O)C(N)CCSC[C@H]1OC(n2ccc3c(N)ncnc32)[C@H](O)[C@@H]1O (some centres undefined) | > 100 | > 100 | 70 (≈ 170 µM) | > 70 | > 100 | – | 20 (≈ 48.6 µM) | 20 (≈ 48.6 µM) | 7 (≈ 17 µM) | 70 (≈ 170 µM) | 20 (≈ 48.6 µM) | 7 (≈ 17 µM) | 20 (≈ 48.6 µM)
24 | Nc1ncnc2c1ncn2C[C@H](O)CO [(S)-DHPA] | > 400 | 10 (≈ 47.8 µM) | > 400 | 7 (≈ 33.5 µM) | > 400 | – | > 400 | > 70 | 40 (≈ 191 µM) | > 400 | > 70 | 20 (≈ 95.6 µM) | > 400
